Where two headings read alike, the source gives them in different places.
Columns and labels:
[1] = tested on: HBV viral load in AD38 cells; experiment: Viral load production in AD38 cells, quantitative PCR of the core sequence in supernatant; type: cell-based; details: Hepatitis B virus, 144 h, 6 days incubation
Procedure: (§1) Assay Measuring Activity of Compounds on Viral Production in and on Viability of AD38 Cells
(§2) AD38 cells grown in a 175 cm flask with “Growth Medium” (DMEM/F12 (1:1) (cat #SH30023.01, Hyclone, 1×Pen/step (cat #: 30-002-CL, Mediatech, Inc), 10% FBS (cat #: 101, Tissue Culture Biologics), 250 μg/mL G418 (cat #: 30-234-CR, Mediatech, Inc), 1 μg/mL Tetracycline (cat #: T3325, Teknova)) were detached with 0.25% trypsin. Tetracycline-free “treatment medium” (15 mL DMEM/F12 (1:1) (cat #SH30023.01, Hyclone, 1×Pen/step (cat #: 30-002-CL, Mediatech, Inc), with 2% FBS, Tet-system approved (cat #: 631106, Clontech) were then added to mix and spun at 1300 rpm for 5 min. Pelleted cells were then re-suspended/washed with 50 mL of 1×PBS 2 times and 10 mL Treatment Medium one time. AD38 cells were then re-suspended with 10 mL of Treatment Medium and counted. Wells of a collagen coated 96-well NUNC microtiter plate were seeded at 50,000/well in 180 μL of Treatment Medium, and 20 μL of in treatment media with either 10% DMSO (Control) or a 10× solution of compound in 10% DMSO was added. Plates were incubated for 6 days at 37° C.
Viral load production was assayed by quantitative PCR of the core sequence. Briefly, 5 μL of clarified supernatant was added to a PCR reaction mixture that contained forward primers HBV-f 5′-CTGTGCCTTGGGTGGCTTT-3′, Reverse primers HBV-r 5′-[…]-3′ and Fluorescent TaqMan™ Probes HBV-probe 5′-FAM/AGCTCCAAA/ZEN/[…]/3IABkFQ-3′ in Quanta Biosciences PerfeCTa® qPCR Toughmix®, and was subsequently on an Applied Biosystems VIIA7 in a final volume of 20 μL. The PCR mixture was incubated at 45° C. for 5 minutes, then 95° C. for 10 min, followed by 40 cycles of 10 seconds at 95° C. and 20 seconds at 60° C. Viral load was quantitated against known standards by using ViiA™ 7 Software. Viral load in the supernatant from wells with treated cells were compared against viral load in supernatant from DMSO control wells (≥3 per plate).

[2] = tested on: AD38 cells; experiment: Viability of AD38 cells, Promega CellTiter-Glo; type: cell-based; details: 6 days incubation, controls being 100%; for AD38 Viability Normalized Result (CPAM/DMSO %) at 10 μM: Table 6, compounds of Group 4
Procedure: as §1, §2
At the end of compound treatment period cell viability was assessed using a Promega CellTiter-Glo protocol. All supernatant was removed the previously treated 96-well microtiter plate, and 50 μL Tetracycline-free treatment medium (DMEM/F12 (1:1), 1×Pen/step (cat #: 30-002-CL, Mediatech, Inc), with 2% FBS, Tet-system approved (cat #: 631106, Clontech), and 1% DMSO was added back to each well. Another 50 μL of CellTiter-Glo reagent solution (Promega, G7573) was then added at room temperature and the contents mixed for 2 minutes on an orbital shaker to induce cell lysis. This was followed by incubation at room temperature for 10 minutes to stabilize the luminescent signal. The luminescence was recorded for 0.2 seconds per well on a Tecan multimode platereader (Infinite M1000 pro). The luminescent signal from each well was normalized against that of untreated (DMSO) control wells. All results in Tables 3-6 were reported with percent viability (with controls being 100%).

[3] = Table 4, compounds of Group 2, read-out: AD38 Viral Load (%) (VL with cmpd/VL in DMSO control) at 10 μM
[4] = Table 3, compounds of Group 1, read-out: AD38 Viral Load (%) (VL with cmpd/VL in DMSO control) at 10 μM
[5] = Table 5, compounds of Group 3, read-out: AD38 Viral Load (%) (VL with cmpd/VL in DMSO control) at 10 μM
[6] = Table 6, compounds of Group 4, read-out: AD38 Viral Load (CpAM/DMSO %) at 10 μM

| SMILES | activity at 10 µM [1, 3] [%] | AD38 Viability Normalized Result (cmpd/DMSO %) at 10 μM ([2]; Table 4, compounds of Group 2) [%] | activity at 10 µM [1, 4] [%] | AD38 Viability Normalized Result (cmpd/DMSO %) at 10 μM ([2]; Table 3, compounds of Group 1) [%] | also measured |
| --- | --- | --- | --- | --- | --- |
| N#Cc1ccc(-c2ncc(CNC(=O)c3ccc4c(c3)NC(=O)[C@H]3CCCCN3S4(=O)=O)s2)c(F)c1 (single isomer, unassigned) [C25-02-Isomer II] | 0.6 | 111 | – | – | – |
| N#Cc1ccc(-c2ncc(CNC(=O)c3ccc4c(c3)NC(=O)[C@@H]3CCCCN3S4(=O)=O)s2)c(F)c1 (single isomer, unassigned) [C25-02-Isomer I] | 3 | 108 | – | – | – |
| O=C(NCc1cnc(-n2cccn2)s1)c1ccc2c(c1)NC(=O)[C@H]1CCCCN1S2(=O)=O (single isomer, unassigned) [C25-04-Isomer II] | 1.7 | 99 | – | – | – |
| O=C(NCc1cnc(-n2cccn2)s1)c1ccc2c(c1)NC(=O)[C@@H]1CCCCN1S2(=O)=O (single isomer, unassigned) [C25-04-Isomer I] | 8.3 | 104 | – | – | – |
| Cc1ncc(CNC(=O)c2ccc3c(c2)NC(=O)c2ccncc2S3)s1 [Compound 576] | 11.7 | 98 | – | – | – |
| O=C(NCc1cnc(-c2ccccc2)s1)c1ccc2c(c1)NC(=O)c1ccncc1S2 [Compound 578] | 3 | 100 | – | – | – |
| O=C(NCc1cnc(-c2ccc(O)cc2)s1)c1ccc2c(c1)NC(=O)c1ccncc1S2 [Compound 762] | 45.6 | 102 | – | – | – |
| O=C1CCC(c2ncc(CNC(=O)c3ccc4c(c3)NC(=O)c3ccccc3S4(=O)=O)s2)CC1 [Compound 818, 11-oxo-N-((2-(4-oxocyclohexyl)thiazol-5-yl)methyl)-10,11-dihydrodibenzo[b,f][1,4]thiazepine-8-carboxamide 5,5-dioxide] | – | – | 1.3 | 84 | – |
| Cl.NC1CCC(Cc2ncc(CNC(=O)c3ccc4c(c3)NC(=O)c3ccccc3S4(=O)=O)s2)CC1 (stereo not shown) [Compound 884, N-((2-((4-aminocyclohexyl)methyl)thiazol-5-yl)methyl)-11-oxo-10,11-dihydrodibenzo[b,f][1,4]thiazepine-8-carboxamide 5,5-dioxide hydrochloride] | – | – | 15.1 | 94 | – |
| O=C(NCc1cnc(C2CCC(O)CC2)s1)c1ccc2c(c1)NC(=O)c1ccccc1S2(=O)=O (stereo not shown) [Compound 924, N-((2-(4-hydroxycyclohexyl)thiazol-5-yl)methyl)-11-oxo-10,11-dihydrodibenzo[b,f][1,4]thiazepine-8-carboxamide 5,5-dioxide] | – | – | 0.7 | 95 | – |
| CC(C)(C)OC(=O)N1CCC(c2ncc(CNC(=O)c3ccc4c(c3)NC(=O)c3ccccc3S4(=O)=O)s2)CC1 [Compound 926-A] | – | – | 3.6 | 98 | – |
| O=C(NCc1cnc(CN2CCOCC2)s1)c1ccc2c(c1)NC(=O)c1ccccc1S2(=O)=O [Compound 927] | – | – | 4.7 | 92 | – |
| CC1(C)CCC(c2ncc(CNC(=O)c3ccc4c(c3)NC(=O)c3ccccc3S4(=O)=O)s2)C1 (stereo not shown) [Compound 979] | – | – | 0.5 | 59 | – |
| O=C1CCC(c2ncc(CNC(=O)c3ccc4c(c3)NC(=O)c3ccccc3S4(=O)=O)s2)C1 (stereo not shown) [Compound 980-A, 11-oxo-N-((2-(3-oxocyclopentyl)thiazol-5-yl)methyl)-10,11-dihydrodibenzo[b,f][1,4]thiazepine-8-carboxamide 5,5-dioxide] | – | – | 1.2 | 97 | – |
| COC1(OC)CCC(c2ncc(CNC(=O)c3ccc4c(c3)NC(=O)c3ccccc3S4(=O)=O)s2)C1 (stereo not shown) [Compound 980-B, N-((2-(3,3-dimethoxycyclopentyl)thiazol-5-yl)methyl)-11-oxo-10,11-dihydrodibenzo[b,f][1,4]thiazepine-8-carboxamide 5,5-dioxide] | – | – | 0.9 | 93 | – |
| O=C(NCc1cnc(C(F)(F)F)s1)c1ccc2c(c1)NC(=O)c1ccncc1S2(=O)=O [Compound 1020] | 6.1 | 97 | – | – | – |
| N#Cc1ccc(-c2ncc(CNC(=O)c3ccc4c(c3)NC(=O)c3ccncc3S4(=O)=O)s2)c(F)c1 [Compound 1021] | 0.3 | 96 | – | – | – |
| C[C@H](N)C(=O)N1CCC(c2ncc(CNC(=O)c3ccc4c(c3)NC(=O)c3ccccc3S4(=O)=O)s2)CC1.Cl [Compound 1034, N-((2-(1-(L-alanyl)piperidin-4-yl)thiazol-5-yl)methyl)-11-oxo-10,11-dihydrodibenzo[b,f][1,4]thiazepine-8-carboxamide 5,5-dioxide hydrochloride] | – | – | 67.7 | 106 | – |
| Cc1c(C(=O)NCc2cnn(-c3nccs3)c2)ccc2c1NC(=O)c1ccccc1S2(=O)=O [Compound 1153, 9-methyl-11-oxo-N-((1-(thiazol-2-yl)-1H-pyrazol-4-yl)methyl)-10,11-dihydrodibenzo[b,f][1,4]thiazepine-8-carboxamide 5,5-dioxide] | – | – | – | – | activity at 10 µM [1, 5]: 2.1%; AD38 Viability Normalized Result (cmpd/DMSO %) at 10 μM ([2]; Table 5, compounds of Group 3): 92% |
| O=C(NCc1cnn(-c2nccs2)c1)c1ccc2c(c1)NC(=O)c1ccccc1S2(=O)=O [Compound 1155, 11-oxo-N-((1-(thiazol-2-yl)-1H-pyrazol-4-yl)methyl)-10,11-dihydrodibenzo[b, f][1,4]thiazepine-8-carboxamide 5,5-dioxide] | – | – | – | – | activity at 10 µM [1, 5]: 0.6%; AD38 Viability Normalized Result (cmpd/DMSO %) at 10 μM ([2]; Table 5, compounds of Group 3): 104% |
| CC1=C(C)C(=O)Nc2cc(C(=O)NCc3cnc(C(F)(F)F)s3)ccc2O1 [Compound C1-01] | 27.9 | 106 | – | – | – |
| CC1=C(C)C(=O)Nc2cc(C(=O)NCc3cnc(-c4ccc(C#N)cc4F)s3)ccc2O1 [Compound C1-02] | 20.4 | 103 | – | – | – |
| Cc1cc(=O)[nH]c2cc(C(=O)NCc3cnc(C(F)(F)F)s3)ccc12 [Compound C2-01, 4-Methyl-2-oxo-N-((2-(trifluoromethyl)thiazol-5-yl)methyl)-1,2-dihydroquinoline-7-carboxamide] | – | – | – | – | activity at 10 µM [1, 6]: 69.7%; AD38 Viability Normalized Result (CPAM/DMSO %) at 10 μM [2]: 113% |
| CC(C)c1cc(=O)[nH]c2cc(C(=O)NCc3cnc(C(F)(F)F)s3)ccc12 [Compound C3-01, 4-Isopropyl-2-oxo-N-((2-(trifluoromethyl)thiazol-5-yl)methyl)-1,2-dihydroquinoline-7-carboxamide] | – | – | – | – | activity at 10 µM [1, 6]: 44.6%; AD38 Viability Normalized Result (CPAM/DMSO %) at 10 μM [2]: 105% |
| N#Cc1ccc(-c2ncc(CNC(=O)c3ccc4c(c3)NC(=O)C43CCCCC3)s2)c(F)c1 [Compound C6-02, N-((2-(4-Cyano-2-fluorophenyl)thiazol-5-yl)methyl)-2′-oxospiro[cyclohexane-1,3′-indoline]-6′-carboxamide] | – | – | – | – | activity at 10 µM [1, 6]: 41.2%; AD38 Viability Normalized Result (CPAM/DMSO %) at 10 μM [2]: 91% |
| CC1=C(C)S(=O)(=O)c2ccc(C(=O)NCc3cnc(C(F)(F)F)s3)cc2NC1=O [Compound C10-01] | 12.2 | 101 | – | – | – |

— patent US10987360B2, “Hepatitis B core protein modulators” (Assembly Biosciences, Inc., priority 2016, dated 2021)
